Source: a melting point compilation (Tetko et al.; mined from patent text by program, amines drawn as free bases though some values may be those of a salt)

| melting point [°C] | Compound |
| --- | --- |
| 143 to 145 | CCc1c(N)c(C(N)=O)nn1CC1CC1 |
| 170 to 175 | O=Cc1ccc2c(c1)C13CC2c2ccccc2C1CN(CC1CCCC1)C3 (stereo not given) |
| 101 to 102 | Fc1ccc(N=c2sc3ccc(Cl)cc3s2)cc1 |
| 178 to 186 | O=C(Nc1ccccc1C(=O)NCCc1ncc[nH]1)c1ccc(Cl)cc1Cl |
| 166 to 168 | N#Cc1c(N2CCCC2)cc(-c2ccccc2)c2c1C(=O)c1ccccc1-2 |
| 131 to 132 | N#Cc1ccc(-c2ccc(C=O)cc2)c(OCc2ccccc2)c1 |
| 80 to 82 | COc1ccc(-c2cc(C)c(N)c(CO)c2)cn1 |
| 77 to 79 | CC(C)(c1ccccc1)C(Sc1ccc(Cl)cc1)n1ccnc1 (stereo not given) |
| 81.6 to 82.4 | C[C@H]1CCCC(C)(C)[C@@H]1C(=O)c1ccc(C#N)c(C(F)(F)F)c1 |
| 69 to 70 | CC(C)Nc1cc(Cl)nc(Cl)n1 |
| 162 to 164 | Fc1ccc(Nc2cc(Cl)nc(NN=Cc3ccc(OC(F)(F)F)cc3)n2)cc1C(F)(F)F |
| 134 to 135 | COc1ccc2c(=O)nc(-c3cccc(CCC(=O)OC(C)(C)C)n3)sc2c1 |
| 129 to 130 | Cc1c(-c2ccncc2)sc2c1C(=O)CCC2 |
| 129 to 130 | CCOC(=O)c1[nH]nnc1Nc1ccc(C)cc1 |
| 295 to 297 | COc1cc(-c2cnc3[nH]c(=O)n(CC4CCCCC4)c3n2)ccn1 |
| 110 to 112 | CNCC(=O)Nc1ccc(S(=O)(=O)c2cccc(Cl)c2)cc1 |
| 175 | Cc1cc(OS(=O)(=O)C(F)(F)F)ccc1-c1cc(C(F)(F)F)nn1-c1ccc(S(C)(=O)=O)cc1 |
| 135 to 136 | Cc1onc(C(F)(F)F)c1CS(=O)(=O)C1=NOC(C)(C)C1 |
| > 300 | Nc1nc(N)c2cc(C=Cc3ccc(C(=O)O)cc3)cnc2n1 |
| 36 | CC(C)(C)COc1ccc([N+](=O)[O-])cc1 |
| 95 to 96 | CC/C(=C(/c1ccc(O)cc1)c1ccc(OCCN(C)C)cc1)c1ccc(C(C)C)cc1 |
| 156 to 158 | CC(C)(C)C(=O)Nc1n[nH]c(C(C)(C)C)c1Cl |
| 152 to 154 | Cc1ccc(Cl)c(Nc2ccccc2C(=O)CS(C)=O)c1Cl (stereo not given) |
| 252 to 254 | Cn1nc(-c2c(Nc3ccccc3)nc(N)nc2-c2ccccc2)ccc1=O |

| melting point [°C] | Compound |
| --- | --- |
| 117 to 118 | O=C1c2cc(OCc3ccc4ccccc4n3)ccc2CCC1Cc1ccccc1 (stereo not given) |
| 134 to 135 | CCOC(=O)c1cn(Cc2ccccc2)c2c(OC)c(F)c(F)c(N)c2c1=O |
| 142 | O=C1CCC(=O)N1CCCCCNC(=O)n1cc(F)c(=O)[nH]c1=O |
| 240 to 241 | Cc1ccc2oc(C(=O)N[C@H]3CCN(C(=O)c4cc(C(F)(F)F)cc(C(F)(F)F)c4)[C@H](Cc4ccc(Cl)cc4)C3)cc(=O)c2c1 |
| 84 to 87 | O=CN1CCSc2ccccc2C1 |
| 97 to 98 | COC=C(C(=O)OC)c1ccccc1CON=C(C)c1noc2ccccc12 |
| > 25 | CSc1cc2c(cc1C(F)(F)F)N(C(=O)Nc1ccc(-c3csc(-c4cccnc4)n3)cc1)CC2 |
| 120 to 125 | CC(C)(CCl)C(O)C(Oc1ccc(Cl)cc1)n1ccnc1 (stereo not given) |
| 111 to 112 | CCOC(=O)CCNc1ncccc1NC(=O)c1cccc(Cl)c1 |
| 141 to 143 | Cc1c(N)ccc(Cc2ccc(N)c(C)c2C)c1C |
| 125 to 126 | CC(C)=CCOc1ccc(C(=O)C=Cc2cccc([N+](=O)[O-])c2)c(O)c1 |
| 241 | CNc1nc(SC)ncc1Cl |
| 292 to 293 | NC(=O)c1nn(-c2ccc3c(c2)OCO3)c2c1CCc1ccc(NC(=O)c3cc(Cl)ncc3Cl)cc1-2 |
| 135 | O=[N+]([O-])c1cc(Cl)cc(C(c2cc(Cl)cc([N+](=O)[O-])c2O)C(F)(F)F)c1O |
| 181 to 182 | COc1cc(CC(=O)O)ccc1SCc1sc(-c2ccc(C(F)(F)F)cc2)nc1C |
| 88 | N#Cc1ccc(OCCCNCCO)cc1 |
| 169 to 170 | Cc1c(CCC(=O)O)c2cc(Br)ccc2n1Cc1ccc(Br)cc1 |
| 220 to 221 | N#Cc1ccccc1/C=C/C(=O)Nc1cc(Cl)cc(NC(=N)c2ccccc2)c1 |
| 88 to 89 | CC(C)C(NC(=O)C(F)(F)F)C(=O)O (stereo not given) |
| 122 to 125 | COc1ccccc1CNc1cccnc1-c1ccccc1 |
| 157 to 162 | Cc1sc2c(Br)c3ccccc3c(-c3cc(Br)c(O)c(C(C)C)c3)c2c1C |
| 45 to 50 | CC(C)(Cc1ccccc1)C(=O)C(Cc1ccccc1)n1cncn1 (stereo not given) |
| 216 to 217 | O=C(O)c1cc2ccccc2n1S(=O)(=O)c1cccc(Cl)c1 |
| 147 to 150 | COC(=O)c1ccc2[nH]nnc2c1C(=O)OC |

| melting point [°C] | Compound |
| --- | --- |
| 253 to 254 | Cc1ccc(OCC(=O)O)c2c3c(C(N)=O)cccc3n(Cc3ccccc3)c12 |
| 128 | O=CC(=C(Cl)c1ccc(Cl)cc1Cl)c1ccc(Cl)cc1 |
| 204 to 206 | NS(=O)(=O)c1ccc(SCCCO)c(C(=O)O)c1 |
| 193 | O=C(CC1CC1)N[C@H]1CC[C@H](CCN2CCN(c3nccc4c3CCO4)CC2)CC1 |
| 169 to 170 | CCN1C(=O)C(C)(C)C(=O)N(C)c2cc(CN(CCn3cc(C)c4oc(C)cc4c3=O)C(C)c3cccnc3C)ccc21 (stereo not given) |
| 97 to 99 | CSc1cc2c(cc1C(F)(F)F)N(C(=O)Nc1cccc(C(=O)NCCN(C(C)C)C(C)C)c1)CC2 |
| 101 to 105 | COc1cc(NC(=O)Nc2ccc(C3CCN(C(=O)Nc4ccc(OCCO)cc4Cl)CC3)cc2)cc(OC)c1 |
| 137 to 138 | COCC1=C(C(=O)OC)C(c2ccccc2Cl)C(C(=O)OC)=C(COC)N1 |
| 177 to 179 | CC(C)c1c(I)sc2ncc(C#N)c(Cl)c12 |
| 18 | CC1(C)OCC(CCBr)CO1 |
| 206 to 208 | Cc1ccc(CC2CCN(C(=O)CNc3ccc4c(c3)OCC(=O)N4)CC2)cc1 |
| 163 to 164 | CC(C(=O)O)c1ccc2c(c1)C(=O)Cc1c(Cl)cccc1S2 (stereo not given) |
| 172 to 175 | CCOC(=O)c1c(N)c2cccnc2n(C2CCCCC2)c1=O |
| 106 to 110 | CC(C)(C)OC(=O)CC(NC(=O)C1CCCN2C(=O)CCC(NC(=O)c3ccccc3)C(=O)N12)C(O)COCc1c(Cl)cccc1Cl (stereo not given) |
| 136 to 138 | COC(=O)NC1CC(=O)N(c2cc(Cl)cc(Cl)c2)C1=O (stereo not given) |
| 67 to 68 | CCOC(=O)CCc1oc(-n2ccnc2)nc1-c1ccc(Cl)cc1 |
| 114 to 115 | CCOC(=O)CCCc1sc(N)nc1-c1ccc(Cl)cc1 |
| 245 to 247 | CCN1C(C(=O)Nc2ccccc2)=C(O)c2ccc3ccccc3c2S1(=O)=O |
| 106 | COC(=O)/C=C\C1C(C(=O)O)C1(C)C (stereo not given) |
| 172 to 173 | Cc1cc(NC(=O)NN(c2ccccc2)c2cccc(CN)c2)ccc1N1CCCCC1=O |
| 183 to 184 | C[Si](C)(C)C#Cc1ccc(-n2c(-c3ccccc3)ccc2-c2ccccc2)cc1 |
| 162 to 163 | CC(C)Oc1cc(N2NC(C)(C)NC2=O)c(Cl)cc1Cl |
| 204 to 207 | CCCn1nc2c(N)nc3ccccc3c2c1NCCC1CCN(S(C)(=O)=O)CC1 |
| 198 to 200 | O=S(=O)(Nc1cccc(Br)c1)c1cc(S(=O)(=O)Nc2cccc(Br)c2)c2cc(O)ccc2c1 |

| melting point [°C] | Compound |
| --- | --- |
| 205 to 207 | CCOC(=O)Cn1c(CC(=O)O)cc2c(Cl)c(Cl)ccc21 |
| 210 to 211 | O=C(O)/C=C/c1ccc(Oc2c(-c3ccccc3)c(C(F)(F)F)cc3ccccc23)cc1 |
| 80 | Cc1ccc(S(=O)(=O)NC(=O)CC2(c3ccc(OCc4ccc5ccccc5n4)cc3)CCCC2)cc1 |
| 24 to 25 | CC(C)Cc1ccc2c(c1)OC(=O)C2 |
| 112 to 113 | O=C1C(=O)N(Cc2ccc(Br)cc2)c2ccc(S(=O)(=O)N3CCCC3COc3ccccc3)cc21 (stereo not given) |
| 139 to 140 | CCON=C(CC)C1=C(O)CC(c2ccc(NC(=O)c3ccccc3C)cc2)CC1=O (stereo not given) |
| 107 to 108 | CCc1nc2c(c(=O)n(C)c(=O)n2C)n1CCCOc1ccccc1 |
| 158 to 160 | CC(=O)OCCn1c(C)nc2ccccc2c1=O |
| 189 to 191 | C[C@]12CCC(=O)N[C@@H]1CCc1cc(-c3ccccc3Cl)ccc12 |
| 177 to 179 | CC(CCC(F)(F)C(C)(C)O)C1CCC2C3CC=C4CC(O)CC(O)C4(C)C3CCC12C (stereo not given) |
| 140 to 144 | Nc1c(Cl)cc(C(=CC(=O)N2CCOCC2)c2ccc(Cl)cc2)cc1Cl |
| 290 to 292 | N=C(NO)c1ccc(-c2cnc(-c3ccc(C(=N)NO)cc3)nc2)cc1 |
| 180 to 186 | N=C(NO)c1cc(C(F)(F)F)cc(-c2ccc(Cl)cc2)n1 |
| 259 to 261 | CCOC(=O)c1nnc2ccc(C#N)cc2c1O |
| 263 to 265 | CC1(C)CC(=O)c2c(N3CCC3)sc(-c3cc[nH]n3)c2C1 |
| 216 to 217 | CC(=O)Nc1cc(-c2sc(-c3ccc(S(C)(=O)=O)cc3)nc2-c2cccc(Cl)c2)ccn1 |
| 125 to 126 | COc1cc(C(=O)c2ccc(OC)c(OC)c2OC)cc(OC)c1OC |
| 134 to 135 | COC(=O)C1CNCCN1C(=O)c1cc(OC)c(OC)c(OC)c1 (stereo not given) |
| 144 to 146 | O=S(=O)(Nc1cccc(OCc2ccc3ccccc3n2)c1)C(F)(F)F |
| 162 to 164 | O=C1NCCc2c(OCC(O)CN3CCCCC3)cccc21 (stereo not given) |
| 127 to 128 | O=C(CCCl)N1CCc2ccc([N+](=O)[O-])cc21 |
| 181 to 183 | N#Cc1ccc(OCc2cccnc2)cc1OC(CCC(=O)O)c1cccc2c1OCO2 (racemic) |
| 114 | CC(c1ccc(F)cc1)N1CCN(c2cc(Oc3cccc4ccncc34)ncn2)CC1 (stereo not given) |
| 145 to 147 | CCC1C(=O)Nc2ccc(-c3ccc(C#N)n3C)cc21 (stereo not given) |

| Compound | melting point [°C] |
| --- | --- |
| CC1(C)CCC(C)(C)c2cc(-c3csc(C=O)c3)ccc21 | 84 to 85 |
| CCC1(O)CC(=O)OCc2c1cc1n(c2=O)Cc2c-1nc1cc(F)c(F)cc1c2-c1ccccc1 (stereo not given) | > 250 |
| O=C(c1cnc(N2CCCC2)c(OCC2CCCC2)n1)N1CCCCC1 | 61 to 62 |
| Nc1cc(Br)cc(OCCF)c1 | 48.5 to 50 |
